Results from patent US20250295656A1, “COMBINATION OF LURBINECTEDIN AND IMMUNE CHECKPOINT INHIBITORS” (priority 2020, published 2025).

How the values were obtained:
Assay type in all cases: cell-based, human
[1] = tested on: U2OS WT cells; experiment: Cytoplasmic quinacrine granularity (intracellular ATP, indicator of ATP release); conditions: lurbinectedin 1 nM to 1 μM, MTX 1 and 3 μM, dose-dependent, decreased over time, vs untreated controls
Protocol: (§1) (a) Human osteosarcoma U2OS (a), human breast cancer HCC70 (b) human colon cancer HT29 cells (c) and murine methylcholantrene-induced fibrosarcoma MCA205 cells (d) were treated with lurbinectedin (Lurbi, 1 nM, 10 nM, 100 nM and 1 μM) for the indicated times. Subsequently, the cells were stained with 1 μM Hoechst 33342 and 1 μM propidium iodide and assessed for the loss of viability by automated image acquisition. Images were segmented, cellular debris was excluded and the number of cells with normal nuclear morphology was enumerated. Cells stably expressing CALR-GFP were treated as above. Following the cells were fixed with 3.7% of PFA, stained with 1 μM Hoechst 33342 and assessed by automated image acquisition. Images were segmented, cellular debris was excluded and CALR-GFP granularity (a surrogate marker of CALR exposure) was evaluated in the cytoplasmic region of cells with normal nuclear morphology. Wild type cells were treated as above and then assessed for cytoplasmic quinacrine granularity (after staining with the ATP-sensitive dye quinacrine together with Hoechst 33342) by automated image acquisition, segmentation and analysis. Cells stably expressing HMGB1-GFP were treated as above and then assessed for nuclear HMGB1-GFP fluorescence intensity. The cells were fixed and stained with Hoechst 33342 and images were acquired, segmented and analyzed. […]

[2] = tested on: U2OS cells stably expressing HMGB1-GFP; experiment: HMGB1 release (loss of nuclear HMGB1-GFP fluorescence); conditions: lurbinectedin 1 nM to 1 μM, MTX 1 and 3 μM, medium to late time points
Protocol: as §1

[3] = tested on: U2OS biosensor cells expressing GFP under the MX1 promoter; experiment: Type I IFN response (MX1-GFP biosensor cells treated with supernatant); conditions: supernatant of treated U2OS cells after 48 hours fresh media; biosensor cells 48 hours; throughout all time points
Protocol: In a systematic screening campaign, the capacity of lurbinectedin to induce immunogenic cell death in cancer cells was assessed in human osteosarcoma U2OS cells stably expressing fluorescent biosensors for the detection of CALR-relocation (as a surrogate marker for CALR surface exposure), HMGB1 release and Type I IFN responses together with U2OS WT cells stained with the ATP-sensitive dye quinacrine. […] The induction of cell death was evaluated based on changes in the nuclear morphology visualized by means of the DNA intercalating dye Hoechst 33342.

[4] = tested on: U2OS cells stably expressing CALR-GFP; experiment: CALR-GFP granularity (surrogate marker of CALR exposure); conditions: lurbinectedin 1 nM to 1 μM, MTX 1 and 3 μM, 4-32 hours, vs untreated controls
Protocol: as §1

O=C1c2c(O)ccc(O)c2C(=O)c2c(NCCNCCO)ccc(NCCNCCO)c21 [MTX, mitoxantrone] was tested, and the “ATP signal (cytoplasmic quinacrine granularity)” value [1] was “significant decrease”, the “nuclear GFP signal (HMGB1-GFP)” value [2] was “significant decrease” and the “de novo GFP signal intensity (type 1 IFN response)” value [3] was “significant increase”. For the same molecule, the CALR-granularity [4] was “time- and dose-dependent increase”.
